In PMC9525273 (Nature Communications, 2022):
Values joined by “and” are separate entries in the source; they are usually repeats but may differ in a detail not shown here. Equal values may be shown once. “Also recorded” adds a separate entry of the source. Read-outs that look alike come from different tables or passages of the source.

Key:
Type in all cases: cell-based, Plasmodium falciparum
[1] = test system: HCR2 parasites (highly cipargamin-resistant clone 2); experiment: P. falciparum proliferation assay (72 h, fluorescent DNA-intercalating dye); details: HCR2 parasites, individual experiments, read-out: IC50 values
Procedure: (§1) For experiments with all other parasites, the effects of compounds of interest on parasite proliferation was measured in 96-well plates containing serial dilutions of the compounds in culture medium, with a fluorescent DNA-intercalating dye used to detect surviving parasites. The assays were initiated with erythrocytes infected with predominantly ring-stage parasites, and the starting parasitaemia and haematocrit were both 1%.

[2] = test system: Dd2-PfATP4^T418N,P990R parasites; experiment: as above; details: Dd2-PfATP4T418N,P990R parasites; individual experiments; read-out: IC50 values
Procedure: as §1

[3] = test system: HCR1 parasites (highly cipargamin-resistant clone 1); experiment: as above; details: Plasmodium falciparum, HCR1 parasites; individual experiments; read-out: IC50 values
Procedure: as §1

[4] = test system: Dd2 parasites; experiment: as above; details: read-out: IC50 values; Dd2 parasites; individual experiments
Procedure: as §1

[5] = test system: Dd2-Polδ-PfATP4^G358S parasites; experiment: as above; details: Dd2-Polδ-PfATP4G358S parasites; individual experiments; read-out: IC50 values
Procedure: as §1

[6] = test system: Dd2-Polδ parasites; experiment: as above
Procedure: as §1

[7] = test system: NF54^WT parasites; experiment: microbe, parasite or virus in culture; details: for FC (IC50) / FC (IC90): NF54WT, reference line
Procedure: (§2) For the NF54-based lines and Dd2-B2-PfATP4^G358S and its parent, assays were initiated with cultures containing predominantly ring-stage parasites with a parasitaemia of 0.3% and a haematocrit of 1%. All assays using NF54 were performed in culture media containing 10% O + human serum. The duration of the assays was 72 h and the concentration of DMSO was <0.5% (v/v). Serial dilutions of the test compounds were performed using a Tecan D300e digital dispenser, with parasite cultures added manually. Parasite survival was assessed by flow cytometry on an Intellicyt iQue3 (Essen Bioscience), with 1× SYBR Green I (Invitrogen) and 200 nM MitoTracker Deep Red FM (Invitrogen) used to stain the nucleus and the mitochondria in live parasites, respectively. The gating strategy used to quantify parasite survival, performed using FlowJo version 10 (FlowJo LLC.), is illustrated in Supplementary Fig. 9. IC50 and IC90 values were calculated by linear interpolation of the dose-response data.

[8] = test system: parasite lines with a G358S mutation in PfATP4; experiment: P. falciparum proliferation assays, statements on all lines with the G358S mutation; details: G358S lines vs PfATP4 wild-type controls
Procedure: as §2, with “Two types of parasite proliferation assays were employed in this study, with both yielding highly consistent results. For” for “For”
as §1, with “1%. […] Fluorescence was measured using a FLUOstar OPTIMA plate reader (BMG LABTECH), with OPTIMA version 2.20R2 and MARS Data Analysis Software version 3.01 R2 (BMG LABTECH).” for “1%.”

[9] = test system: NF54^CTL parasites; experiment: P. falciparum proliferation assay (72 h, flow cytometry, SYBR Green I/MitoTracker); details: for FC (IC50) / FC (IC90): NF54CTL compared to NF54WT
Procedure: as §2

[10] = test system: NF54^G358S-2 parasites; experiment: as above
Procedure: as §2

[11] = test system: NF54^G358S-1 parasites; experiment: as above
Procedure: as §2

[12] = NF54WT parasites, individual experiments, read-out: IC50 values
[13] = NF54WT parasites, individual experiments, read-out: IC90 values
[14] = Plasmodium falciparum, NF54, NF54WT parasites, individual experiments, read-out: IC90 values
[15] = Plasmodium falciparum, NF54, NF54WT parasites, mean of the experiments, read-out: IC50 values, MEAN
[16] = Plasmodium falciparum, NF54, NF54WT parasites, mean of the experiments, read-out: IC90 values, MEAN
[17] = NF54CTL parasites, individual experiments, read-out: IC50 values
[18] = NF54CTL parasites, individual experiments, read-out: IC90 values
[19] = Plasmodium falciparum, NF54, NF54CTL parasites, individual experiments, read-out: IC90 values
[20] = Plasmodium falciparum, NF54, NF54CTL parasites, mean of the experiments, read-out: IC50 values, MEAN
[21] = Plasmodium falciparum, NF54, NF54CTL parasites, mean of the experiments, read-out: IC90 values, MEAN

| SMILES | IC50 [7, 12] | IC90 [7, 13] | FC (IC50) [7] [fold] | FC (IC90) [7] [fold] | IC90 [7, 14] [nM] | IC50 [7, 15] [nM] | IC90 [7, 16] [nM] | effect of the G358S mutation in PfATP4 on parasite susceptibility [8] | FC (IC50) [9] [fold] | FC (IC90) [9] [fold] | IC50 [9, 17] | IC90 [9, 18] | IC90 [9, 19] [nM] | IC50 [9, 20] [nM] | IC90 [9, 21] [nM] | other results |
| --- | --- | --- | --- | --- | --- | --- | --- | --- | --- | --- | --- | --- | --- | --- | --- | --- |
| CCN(CC)CCCC(C)Nc1ccnc2cc(Cl)ccc12 (stereo not shown) [Chloroquine] |  |  |  |  |  |  |  |  |  |  |  |  |  |  |  | IC50 [1]: 229 nM; IC50 ([1]; Plasmodium falciparum): 159 nM; IC50 [2]: 165 nM; IC50 [3]: 92 nM; IC50 [4]: 92 nM and 187 nM; IC50 [5]: 161 nM and 262 nM and 227 nM; IC50 ([6]; Dd2-Polδ parasites, individual experiments, read-out: IC50 values): 172 nM and 316 nM; IC50 ([6]; Plasmodium falciparum, DD2, Dd2-Polδ parasites, mean of the experiments, read-out: IC50 values, MEAN): 185 nM; IC50 ([6]; Plasmodium falciparum, DD2, SET-2, read-out: Mean IC50 value ± SEM for growth inhibition, Dd2-Polδ, Supplementary Table 1, Set 2): 185 nM |
| CC1(C)c2nc(-c3ccc(F)cc3)c(Nc3ccc(F)cc3)n2CCN1C(=O)CN [KAF156] | 6.9 nM and 7.1 nM and 5.4 nM | 14.7 nM and 12.9 nM and 12.4 nM and 9.88 nM and 13.6 nM and 9.68 nM | 1.0 | 1.0 | 17.6 | 6.7 | 13 | no impact; also recorded: no effect | 0.7 | 0.8 | 5.1 nM and 4.4 nM and 4.5 nM and 5.9 nM and 4.7 nM | 13.8 nM and 9.19 nM and 9.36 nM and 8.54 nM and 9.44 nM and 9.66 nM | 12.6 | 4.9 | 10.4 | IC50 ([7]; Plasmodium falciparum, NF54, NF54WT parasites, individual experiments, read-out: IC50 values): 7.2 nM; IC50 ([7]; Plasmodium falciparum, NF54, NF54WT, 10% human serum, read-out: IC50 ± SEM): 6.7 ± 0.2 nM; IC50 ([9]; Plasmodium falciparum, NF54, NF54CTL parasites, individual experiments, read-out: IC50 values): 5.5 nM |
| CCCCN(CCCC)CC(O)c1cc(Cl)cc2c1-c1ccc(Cl)cc1/C2=C/c1ccc(Cl)cc1 (stereo not shown) [Lumefantrine] | 57 nM and 33.7 nM and 89.8 nM and 48.6 nM | 102 nM and 140 nM and 109 nM | 1.0 | 1.0 | 142 | 57.3 | 123 | no effect | 0.8 | 1.0 | 38.6 nM and 28.4 nM and 70.8 nM and 45.8 nM | 98.1 nM and 138 nM and 120 nM | 138 | 45.9 | 123 | FC (IC50) ([10]; NF54G358S-2 compared to NF54WT): 0.7 fold; FC (IC90) ([10]; NF54G358S-2 compared to NF54WT): 1.0 fold; IC50 ([10]; NF54G358S-2 parasites, individual experiments, read-out: IC50 values): 31.8 nM and 46.1 nM and 31.3 nM; IC90 ([10]; NF54G358S-2 parasites, individual experiments, read-out: IC90 values): 82.7 nM and 129 nM and 123 nM; IC50 ([10]; Plasmodium falciparum, NF54, NF54G358S-2 parasites, individual experiments, read-out: IC50 values): 55.1 nM; IC90 ([10]; Plasmodium falciparum, NF54, NF54G358S-2 parasites, individual experiments, read-out: IC90 values): 152 nM; IC50 ([10]; Plasmodium falciparum, NF54, NF54G358S-2 parasites, mean of the experiments, read-out: IC50 values, MEAN): 41.1 nM; IC90 ([10]; Plasmodium falciparum, NF54, NF54G358S-2 parasites, mean of the experiments, read-out: IC90 values, MEAN): 122 nM; FC (IC50) ([11]; NF54G358S-1 compared to NF54WT): 0.7 fold; FC (IC90) ([11]; NF54G358S-1 compared to NF54WT): 1.1 fold; IC50 ([11]; NF54G358S-1 parasites, individual experiments, read-out: IC50 values): 34 nM and 51.7 nM and 36.1 nM; IC90 ([11]; NF54G358S-1 parasites, individual experiments, read-out: IC90 values): 115 nM and 130 nM and 120 nM; IC50 ([11]; Plasmodium falciparum, NF54, NF54G358S-1 parasites, individual experiments, read-out: IC50 values): 48.2 nM; IC90 ([11]; Plasmodium falciparum, NF54, NF54G358S-1 parasites, individual experiments, read-out: IC90 values): 182 nM; IC50 ([11]; Plasmodium falciparum, NF54, NF54G358S-1 parasites, mean of the experiments, read-out: IC50 values, MEAN): 42.5 nM; IC90 ([11]; Plasmodium falciparum, NF54, NF54G358S-1 parasites, mean of the experiments, read-out: IC90 values, MEAN): 137 nM |
